Blank lines part the entries; values can stand above or below the compound they belong to.
Key:
Hxt2 [1] = system: T1, Hxt2; assay: initial 2DG uptake ([…] s, zero-trans), bioluminescent 2DG6P assay in HXT2m cells; type: cell-based, Saccharomyces cerevisiae; details: 1 mM 2DG, pH 7.4, 25 °C, 30 min preincubation, authors: nonspecific action via membrane lipid, not specific binding
T1 construct: full-length HXT2 expressed from ADH1 promoter on multicopy plasmid Hxt2mnx-pVT (pVT102-U) in S. cerevisiae EBY.S7 (all 18 hexose transporter genes deleted; HXT2m strain)

Hxt2 [2] = system: T1, Hxt2; assay: as above; type: cell-based, Saccharomyces cerevisiae; details: no alcohol, 0–4 mM 2DG, pH 7.4, 25 °C, zero-trans influx

IC50 (Hxt2 [1]): 3.6 mM
SMILES: CCCCCCCCO [C8, 1-octanol]

IC50 (Hxt2 [1]; noncompetitive): 15.2 mM
SMILES: CCCCCCO [C6, 1-hexanol]

SMILES: OC[C@H]1OC(O)C[C@@H](O)[C@@H]1O (stereo partly drawn) [2DG, 2-deoxyglucose]
Km (Hxt2 [2]): 800 to 900 µM
